One may read the inhibition as the drop in the measured response relative to a control, in per cent.

Among the data in PubChem BioAssay AID1053200 (The Scripps Research Institute Molecular Screening Center, 2014) are inhibition values, retold here.

The experiment deals with Methionine--tRNA ligase, mitochondrial (Homo sapiens) (UniProt Q96GW9). Description: inhibitors of human mitochondrial methionyl-tRNA synthetase – biochemical, radioactivity, round 2, selectivity assay for T. brucei MetRS inhibitor project, late-stage follow-up (AID 1053200). The following applies: recombinant human mitochondrial MetRS, [3H]Met aminoacylation, stronger effect = higher value.

Activity calls are given as the source filed them.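 The calls were made as follows: active = inhibition at or above 50% when tested at 10 µM; inactive = inhibition below 50% at 10 µM.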

Methionine--tRNA ligase, mitochondrial (Homo sapiens), sequence (Q96GW9 whole entry, looked up): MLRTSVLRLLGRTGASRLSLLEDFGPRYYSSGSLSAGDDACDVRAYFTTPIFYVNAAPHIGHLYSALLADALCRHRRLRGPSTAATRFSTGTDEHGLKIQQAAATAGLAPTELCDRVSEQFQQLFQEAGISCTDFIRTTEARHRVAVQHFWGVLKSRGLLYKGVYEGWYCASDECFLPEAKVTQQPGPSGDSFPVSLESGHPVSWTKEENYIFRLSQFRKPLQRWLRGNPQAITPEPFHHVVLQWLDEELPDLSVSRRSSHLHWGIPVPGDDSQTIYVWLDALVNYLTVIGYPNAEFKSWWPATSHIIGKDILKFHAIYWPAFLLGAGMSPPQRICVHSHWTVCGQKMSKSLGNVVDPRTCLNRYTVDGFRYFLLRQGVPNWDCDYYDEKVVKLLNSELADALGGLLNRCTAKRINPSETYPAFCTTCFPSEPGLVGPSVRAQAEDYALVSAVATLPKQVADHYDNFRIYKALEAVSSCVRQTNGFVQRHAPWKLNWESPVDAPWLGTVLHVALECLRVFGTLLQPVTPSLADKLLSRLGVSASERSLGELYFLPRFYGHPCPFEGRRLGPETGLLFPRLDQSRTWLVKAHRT

With `CCN(CC)C(=O)C(=O)c1cn(CC(=O)Nc2cc(Cl)cc(C(F)(F)F)c2)c2ccccc12`, the inhibition reads like this: (at 10 µM) 17.4% (inactive); (inhibition, at 1 µM) -6.78%.

For the molecule `CCN(CC)C(=O)C(=O)c1cn(CC(=O)Nc2cc(Oc3ccccc3)cc(C(F)(F)F)c2)c2ccccc12`, the inhibition runs as follows: (at 10 µM) 21.1% (inactive); (inhibition, at 1 µM) -2.76%.

Turning to `CCN(CC)C(=O)C(=O)c1cn(CC(=O)Nc2cccc(C(F)(F)F)c2)c2cc(OC)ccc12`, the inhibition reads like this: (at 10 µM) -1.37% (inactive); (inhibition, at 1 µM) -8.82%.

As to `CCN(CC)C(=O)C(=O)c1cn(CC(=O)Nc2cc(C)cc(C(F)(F)F)c2)c2ccccc12`, the inhibition was 20.9% (inactive) (at 10 µM) and -1.02% (inhibition, at 1 µM).

For the molecule `CCN(CC)C(=O)C(=O)c1cn(CC(=O)Nc2cc(C(F)(F)F)cc(C(F)(F)F)c2)c2ccccc12`, the inhibition runs as follows: (at 10 µM) 9.77% (inactive); (inhibition, at 1 µM) -3.97%.

Take `CCN(CC)C(=O)C(=O)c1cn(CC(=O)Nc2cc(Br)cc(C(F)(F)F)c2)c2ccccc12`: the inhibition reads like this: (at 10 µM) 12.8% (inactive); (inhibition, at 1 µM) -17.3%.
